Earlier results as cited in patent US20230130225A1, “METHOD OF TREATING AMYOTROPHIC LATERAL SCLEROSIS WITH MYELOPEROXIDASE INHIBITOR” (Biohaven Therapeutics Ltd., priority 2020, published 2023).
Where two headings read alike, the source gives them in different places.

Experiments:
[1] = healthy subjects, multiple dosages of up to 900 mg BID
[2] = participants with Parkinson's disease and MSA, dosages of up to 600 mg BID for 8-12 weeks
[3] = target: T1, MPO (Homo sapiens, UniProt P05164); conditions: 600 mg BID, Phase 2 studies
T1 construct: from tissue; host or cells: plasma of clinical study participants
T1 sequence (P05164 279-745 limits assumed): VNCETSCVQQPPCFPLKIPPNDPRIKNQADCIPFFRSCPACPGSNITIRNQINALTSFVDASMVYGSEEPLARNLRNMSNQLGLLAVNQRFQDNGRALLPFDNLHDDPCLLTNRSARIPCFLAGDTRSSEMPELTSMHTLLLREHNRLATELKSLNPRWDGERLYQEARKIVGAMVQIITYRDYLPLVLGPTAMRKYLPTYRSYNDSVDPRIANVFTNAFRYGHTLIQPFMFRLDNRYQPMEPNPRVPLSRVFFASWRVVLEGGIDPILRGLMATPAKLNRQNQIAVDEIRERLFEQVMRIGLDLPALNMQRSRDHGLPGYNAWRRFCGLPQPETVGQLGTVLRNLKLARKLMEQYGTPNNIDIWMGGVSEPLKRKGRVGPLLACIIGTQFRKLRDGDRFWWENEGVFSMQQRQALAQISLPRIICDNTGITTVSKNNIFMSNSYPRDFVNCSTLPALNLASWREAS
T1 sequence (P05164 165-273 limits assumed): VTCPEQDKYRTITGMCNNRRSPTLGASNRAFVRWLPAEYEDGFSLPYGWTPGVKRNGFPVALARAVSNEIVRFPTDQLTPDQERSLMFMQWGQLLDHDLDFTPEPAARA

[4] = test system: TSPO; conditions: 600 mg BID, Phase 2 studies
[5] = subjects with MSA, 12 weeks, 600 mg BID

- MPO activity in plasma [3]: decreased
- TSPO binding on brain PET imaging (microglial activation/neuroinflammation) [4]: reduced
Structure (SMILES): CC(C)OCCn1c(=S)[nH]c(=O)c2[nH]ccc21 [verdiperstat, 1-(2-isopropoxyethyl)-2-thioxo-1,2,3,5-tetrahydro-pyrrolo[3,2-d]pyrimidin-4-one]
- safety and tolerability [1]: generally safe and well tolerated
- safety and tolerability [2]: generally safe and well tolerated
- trends on clinical efficacy measures [5]: favorable, dose-dependent trends
